According to PubChem BioAssay AID463204 (Broad Institute, 2010):
Calls of active or inactive are those of the source.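 How the source made its calls: active means AC50 no more than ten times the top concentration tested, that is within one log above it; inconclusive means flat curve fit with activity between 30% and 70%, or invalid poor fit; inactive means AC50 beyond ten times the top tested dose.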

Tested on: S. cerevisiae Mot1-301 ts growth rescue, BacTiter-Glo ATP luminescence
Experiment: growth rescue of Mot1-301 ts yeast, confirmation, SUMOylation pathway inhibitor project, whole organism, S. cerevisiae, Mot1-301 ts mutant, luminescence, dose retest (AID 463204);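 further: growth at restrictive 38.5 degrees C of Mot1-301 OY566 strain; actives raise luminescence by restoring growth of the ts mutant at high temperature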

Row | Compound | AC50
1 | COc1ccc(-c2nnc(SCC(=O)N3CCCCC3)o2)cc1 | > 42 µM (inactive)
2 | Cc1ccc(NC(=O)CN(C)C(=O)c2cccc(Br)c2)cc1 | > 42 µM (inactive)
3 | COc1ccc(OC)c(Cc2nnc(CCC(=O)NCc3ccsc3)o2)c1 | > 42 µM (inactive)
4 | NS(=O)(=O)c1ccc(CCNC(=O)CN2CCN(c3ccc(F)cc3)CC2)cc1 | > 42 µM (inactive)
5 | COc1ccccc1/C=C/C(=O)c1c2c(c(C)[nH]c1=O)CCCC2 | > 42 µM (inactive)
6 | COc1ccccc1C(=O)N(NC(=O)Oc1ccccc1)C(C)(C)C | > 42 µM (inactive)
7 | Cc1cc(C)n(C(=O)c2ccccc2[N+](=O)[O-])n1 | > 42 µM (inactive)
8 | OC(COc1ccccc1)Cn1c2ccccc2c2ccccc21 (stereo unspecified) | 35.6 µM
9 | CCOC(=O)c1cc2sc(C)cc2n1CC(=O)Nc1ccc2c(c1)OCCO2 | > 42 µM (inactive)
10 | S=C(NCCc1c[nH]c2ccccc12)NC1CC1 | > 42 µM (inactive)
11 | CCCCC(=O)NCCc1ccc(S(N)(=O)=O)cc1 | > 42 µM (inactive)
12 | Cc1ccc(NS(=O)(=O)c2ccc(NC(=O)C3CCCO3)cc2)cc1 (stereo unspecified) | > 42 µM (inactive)
13 | COC(=O)c1sc(NC(=O)c2ccc(Cn3cc(Cl)cn3)o2)c(C#N)c1C | > 42 µM (inactive)
14 | CC1c2cc3c(cc2CCN1CC(=O)Nc1ccccc1)OCCCO3 (stereo unspecified) | > 42 µM (inactive)
15 | Cc1sc2ncnc(Nc3ccccc3)c2c1C | 29.7 µM
16 | Cn1c(NCc2ccco2)nc2c1c(=O)n(Cc1ccc(Cl)cc1)c(=O)n2C | > 42 µM (inactive)
17 | CSCC[C@H](NC(=O)CC(C)(C)C)c1nc2ccccc2[nH]1 | > 42 µM (inactive)
18 | CCC1CCCCN1C(=O)CSc1nnc(CNC(=O)c2ccco2)o1 (stereo unspecified) | > 42 µM (inactive)
19 | Cc1ccc(C(=O)O)cc1[N+](=O)[O-] | > 42 µM (inactive)
20 | O=C1OC(Cc2ccccn2)C(O)=C1C1=NCCCN1 (stereo unspecified) | > 42 µM (inactive)
21 | COc1cc(NC(=O)c2ccccc2F)c(OC)cc1NC(=O)CN1CCCCC1 | > 42 µM (inactive)
22 | Cc1nn(C(C)(C)C)c(OC(=O)c2ccc3c(c2)OCO3)c1S(=O)(=O)c1ccccc1 | > 42 µM (inactive)
23 | COc1ccc(CN(CC(=O)NCC2CCCO2)C(=O)CCC(=O)Nc2cc(C)on2)cc1 (stereo unspecified) | > 42 µM (inactive)
24 | CN(c1cccnc1)c1ncnc2[nH]ncc12 | > 42 µM (inactive)
25 | Cc1nc2ccc(NC(=O)c3ccc(S(=O)(=O)N4CCOCC4)cc3)cc2s1 | > 42 µM (inactive)
26 | CC(NC(=O)CCc1nnc(-c2ccc(-c3ccccc3)cc2)o1)c1nc2ccccc2[nH]1 (stereo unspecified) | > 42 µM (inactive)

Row | Compound | AC50
27 | CCc1ccc(-n2c(Cc3ccccc3)n[nH]c2=S)cc1 | > 42 µM (inactive)
28 | CCc1cccc(C)c1NC(=O)CSc1nnc(-c2cc3cc(Br)ccc3o2)n1CC | > 42 µM (inactive)
29 | c1ccc(-c2cc3cc4c(cc3cn2)OCO4)cc1 | 11.7 µM
30 | COc1cccc(-n2c(SCC(=O)NC3CCCCC3)nc3n[nH]c(C)c3c2=N)c1 | > 42 µM (inactive)
31 | O=C(CSc1nnc(NC(=O)CN2CCOCC2)s1)Nc1ccccc1 | > 42 µM (inactive)
32 | O=C(Cn1sc2ccccc2c1=O)NC12CC3CC(CC(C3)C1)C2 | 20.7 µM
33 | CCc1ccc2[nH]c(=O)c(C(c3nnnn3Cc3ccccc3)N3CCOCC3)cc2c1 (stereo unspecified) | > 42 µM (inactive)
34 | CCCOc1ccccc1C1NC(=O)NC(C)=C1C(=O)OCCOCC (stereo unspecified) | > 42 µM (inactive)
35 | COc1ccc(-n2c3c(cc(C(=O)NCC(=O)c4ccccc4)c2=O)C(=O)CC(C)(C)C3)cc1 | > 42 µM (inactive)
36 | C=CCN1c2ccccc2[C@]23C[C@@H](C(=O)OC)N=C2NC(C(=O)OC)=C(C(=O)OC)[C@H]13 | > 42 µM (inactive)
37 | COc1ccccc1N1CCN(C(=O)c2ccc(N3CCCCS3(=O)=O)cc2)CC1 | > 42 µM (inactive)
38 | Cc1cccc(OCCN2CSC(=S)N(C)C2)c1 | 3.7 µM
39 | Cc1ccc(C(=O)NCCCN2CCOCC2)cc1 | > 42 µM (inactive)
40 | CC1(C)NC(=O)N(CC(=O)O)C1=O | > 42 µM (inactive)
41 | CCCC(O)(CCC)C(=O)NNc1ccc(C)cc1 | > 42 µM (inactive)
42 | COC(=O)C1C(c2ccc(OC)c(OC)c2)NC(c2ccc(OC)c(OC)c2)C(C(=O)OC)S1(=O)=O (stereo unspecified) | > 42 µM (inactive)
43 | O=C(CCC(=O)OC(C(=O)c1ccccc1)c1ccccc1)Nc1ccccc1 (stereo unspecified) | > 21 µM (inactive)
44 | CCOc1ccccc1NC(=O)CSc1nc(N)c(C#N)cc1C#N | > 42 µM (inactive)
45 | Nc1cc[n+](CC(=O)Nc2ccccc2)cc1 | > 42 µM (inactive)
46 | Cc1ccc(C)n1-c1ccc(N(C)C)cc1 | > 42 µM (inactive)
47 | O=c1c2c3c(sc2n2cnnc2n1-c1ccccc1)N(Cc1ccccc1)CCC3 | > 42 µM (inactive)
48 | CN1C(=O)/C(=C/c2ccc(OCc3ccccc3F)cc2)NC1=S | > 42 µM (inactive)
49 | O=C(c1cc(Cl)c(=O)n(Cc2ccc(Cl)cc2)c1)N1CCOCC1 | > 42 µM (inactive)
50 | O=C(Cc1ccc(Cl)cc1Cl)OCC(=O)c1ccc[nH]1 | > 42 µM (inactive)
51 | O=C1CCCC2=C1C(c1ccncc1)c1c(nc(SCc3ccccc3Cl)[nH]c1=O)N2 (stereo unspecified) | > 42 µM (inactive)
